Like-named read-outs stand apart in the source and are kept apart here.
Tests used:
[1] = test system: TNFα production in LPS-stimulated human monocytes; test: Cot Monocyte TNFα Cell Based Assay; conditions: Homo sapiens, Monocyte, read-out: EC50 TNF
Procedure, shortened: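 TNFα release quantified by two-antibody TR-FRET, normalised to unstimulated (0%) and LPS-stimulated (100%) wells. Cells got a 1 h compound exposure at 37° C in 0.5% DMSO before 4 h challenge with 50 pg/ml LPS, at 5,000 cells/well.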

[2] = target: T1, human Cot catalytic domain (30-397 amino acids) (Homo sapiens, UniProt P41279); test: High Throughput Cot Biochemical Assay (KinEASE TR-FRET); conditions: Cot biochemical HTRF (KinEASE TR-FRET) assay; read-out: IC50 HTRF
T1 construct: Purified recombinant human Cot catalytic domain (30-397 amino acids) was purchased from Cama Biosciences; purchased Cama Biosciences (so in the source)
T1 sequence (P41279 30-397): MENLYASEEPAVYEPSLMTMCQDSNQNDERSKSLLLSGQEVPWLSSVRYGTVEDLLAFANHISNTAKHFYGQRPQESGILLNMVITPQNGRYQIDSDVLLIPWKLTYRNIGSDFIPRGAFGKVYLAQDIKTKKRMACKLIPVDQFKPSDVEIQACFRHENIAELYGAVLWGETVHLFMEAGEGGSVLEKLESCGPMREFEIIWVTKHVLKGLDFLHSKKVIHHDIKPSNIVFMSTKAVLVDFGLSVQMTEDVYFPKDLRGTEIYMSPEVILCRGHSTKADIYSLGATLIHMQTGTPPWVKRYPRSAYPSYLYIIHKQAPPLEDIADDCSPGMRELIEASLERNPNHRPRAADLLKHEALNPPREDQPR
Procedure, shortened: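 TR-FRET (KinEASE) read-out: Eu-labelled phospho-specific antibody binds XL665-tagged STK3 peptide (1 μM) phosphorylated by 5 nM human Cot kinase domain (residues 30-397). Reaction at 400 μM ATP, pH 7.0 MOPS buffer with 10 mM MgOAc, 1 mM DTT and 0.1% DMSO.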

[3] = TNFα in LPS-stimulated human monocytes

EC50 [1, 3] | IC50 [2] | Structure (SMILES) | EC50 [1]
8800 nM | 298 nM | CC[C@@H](Nc1c(C#N)cnc2c(Cl)cc(N(CC)[C@@H](c3ccccc3)c3c[nH]nn3)cc12)c1ccccc1 [Example 481, 8-chloro-6-(ethyl((S)-phenyl(1H-1,2,3-triazol-4-yl)methyl)amino)-4-(((R)-1-phenylpropyl)amino) quinoline-3-carbonitrile] | –
> 10000 nM | 332 nM | Cn1cc(Nc2c(C#N)cnc3c(Cl)cc(N[C@@H](c4ccccc4)c4c[nH]nn4)cc23)ccc1=O [Example 482, (S)-8-chloro-4-((1-methyl-6-oxo-1,6-dihydropyridin-3-yl)amino)-6-((phenyl (1H-1,2,3-triazol-4-yl)methyl)amino)quinoline-3-carbonitrile] | –
> 10000 nM | 387 nM | Cn1cc(Nc2c(C#N)cnc3c(Cl)cc(N[C@@H](c4ccccc4)c4cn(C5COC5)nn4)cc23)ccc1=O [Example 483, (S)-8-chloro-4-((1-methyl-6-oxo-1,6-dihydropyridin-3-yl)amino)-6-(((1-(oxetan-3-yl)-1H-1,2,3-triazol-4-yl)(phenyl)methyl)amino) quinoline-3-carbonitrile] | –
7240 nM | 306 nM | C[C@@H](Nc1c(C#N)cnc2c(Cl)cc(N[C@@H](c3ccccc3)c3cn(C4CCN(C(C)(C)C)CC4)nn3)cc12)C(C)(C)C [Example 485, 6-(((S)-(1-(1-(tert-butyl)piperidin-4-yl)-1H-1,2,3-triazol-4-yl)(phenyl)methyl)amino)-8-chloro-4-(((R)-3,3-dimethylbutan-2-yl)amino) quinoline-3-carbonitrile] | –
3190 nM | 172 nM | COc1ccc(Nc2c(C#N)cnc3c(Cl)cc(N[C@@H](c4ccccc4)c4c[nH]nn4)cc23)cn1 [Example 490, (S)-8-chloro-4-((6-methoxypyridin-3-yl)amino)-6-((phenyl (1H-1,2,3-triazol-4-yl)methyl)amino) quinoline-3-carbonitrile] | –
3840 nM | 123 nM | COc1ccc(Nc2c(C#N)cnc3c(Cl)cc(N[C@@H](c4ccccc4)c4cn(C5COC5)nn4)cc23)cn1 [Example 491, (S)-8-chloro-4-((6-methoxypyridin-3-yl)amino)-6-(((1-(oxetan-3-yl)-1H-1,2,3-triazol-4-yl)(phenyl)methyl)amino) quinoline-3-carbonitrile] | –
966 nM | 65 nM | COc1ccc(Nc2c(C#N)cnc3c(Cl)cc(N[C@@H](c4ccccc4)c4cn(C5CCN(C(C)(C)C)CC5)nn4)cc23)cn1 [Example 492, (S)-6-(((1-(1-(tert-butyl)piperidin-4-yl)-1H-1,2,3-triazol-4-yl)(phenyl)methyl)amino)-8-chloro-4-((6-methoxypyridin-3-yl)amino)quinoline-3-carbonitrile] | –
1220 nM | 18 nM | N#Cc1cnc2c(Cl)cc(N[C@@H](c3ccc(F)cc3)c3cn(CCF)nn3)cc2c1Nc1cnc(F)c(F)c1 [Example 493, (S)-8-chloro-4-((5,6-difluoropyridin-3-yl)amino)-6-(((1-(2-fluoroethyl)-1H-1,2,3-triazol-4-yl)(4-fluorophenyl)methyl)amino) quinoline-3-carbonitrile] | –
585 nM | 47 nM | N#Cc1cnc2c(Cl)cc(N[C@@H](c3ccc(Cl)cc3)c3cn(C4COC4)nn3)cc2c1Nc1cnc(F)c(F)c1 [Example 494, (S)-8-chloro-6-(((4-chlorophenyl)(1-(oxetan-3-yl)-1H-1,2,3-triazol-4-yl)methyl)amino)-4-((5,6-difluoropyridin-3-yl)amino)quinoline-3-carbonitrile] | –
1840 nM | 4 nM | CC(=O)N(C)c1cccc([C@H](Nc2cc(Cl)c3ncc(C#N)c(Nc4cnc(F)c(F)c4)c3c2)c2c[nH]nn2)c1 [Example 496, (S)-N-(3-(((8-chloro-3-cyano-4-((5,6-difluoropyridin-3-yl)amino)quinolin-6-yl)amino)(1H-1,2,3-triazol-4-yl)methyl)phenyl)-N-methylacetamide] | –
985 nM | 26 nM | N#Cc1cnc2c(Cl)cc(N[C@@H](c3ccccc3)c3cn([C@@H]4CCN(C5COC5)C[C@H]4O)nn3)cc2c1Nc1ccc(F)c(Cl)c1 [Example 497, 8-chloro-4-((3-chloro-4-fluorophenyl)amino)-6-(((S)-(1-((3R,4R)-3-hydroxy-1-(oxetan-3-yl)piperidin-4-yl)-1H-1,2,3-triazol-yl)(phenyl)methyl)amino)quinoline-3-carbonitrile] | –
985 nM | 6 nM | N#Cc1cnc2c(Cl)cc(N[C@@H](c3cccc(-c4ncco4)c3)c3cn(C4COC4)nn3)cc2c1Nc1cnc(F)c(F)c1 [Example 499, (S)-8-chloro-4-((5,6-difluoropyridin-3-yl)amino)-6-(((3-(oxazol-2-yl)phenyl) (1-(oxetan-3-yl)-1H-1,2,3-triazol-4-yl)methyl)amino)quinoline-3-carbonitrile] | –

Continued, compound first:

Structure (SMILES) | EC50 [1, 3] | IC50 [2] | EC50 [1]
Cn1cc(Nc2c(C#N)cnc3c(Cl)cc(N[C@@H](c4ccccc4)c4cn(C5CCN(C(C)(C)C)CC5)nn4)cc23)ccc1=O [Example 484, (S)-6-(((1-(1-(tert-butyl)piperidin-4-yl)-1H-1,2,3-triazol-4-yl)(phenyl)methyl)amino)-8-chloro-4-((1-methyl-6-oxo-1,6-dihydropyridin-3-yl)amino)quinoline-3-carbonitrile] | > 10000 nM | 371 nM | –
C[C@H](Nc1c(C#N)cnc2c(Cl)cc(N[C@@H](c3ccccc3)c3cn(C4CCN(C(C)(C)C)CC4)nn3)cc12)C(C)(C)C [Example 486, 6-(((S)-(1-(1-(tert-butyl)piperidin-4-yl)-1H-1,2,3-triazol-4-yl)(phenyl)methyl)amino)-8-chloro-4-(((S)-3,3-dimethylbutan-2-yl)amino)quinoline-3-carbonitrile] | 637 nM | 24 nM | –
CC(C)(C)N1CCC(n2cc([C@@H](Nc3cc(Cl)c4ncc(C#N)c(N[C@@H]5CCCc6ccccc65)c4c3)c3ccccc3)nn2)CC1 [Example 487, 6-(((S)-(1-(1-(tert-butyl)piperidin-4-yl)-1H-1,2,3-triazol-4-yl)(phenyl)methyl)amino)-8-chloro-4-(((R)-1,2,3,4-tetrahydronaphthalen-1-yl)amino)quinoline-3-carbonitrile] | 6780 nM | 2250 nM | –
CC(C)(C)N1CCC(n2cc([C@@H](Nc3cc(Cl)c4ncc(C#N)c(N[C@H]5CCCc6ccccc65)c4c3)c3ccccc3)nn2)CC1 [Example 488, 6-(((S)-(1-(1-(tert-butyl)piperidin-4-yl)-1H-1,2,3-triazol-4-yl)(phenyl)methyl)amino)-8-chloro-4-(((S)-1,2,3,4-tetrahydronaphthalen-1-yl)amino)quinoline-3-carbonitrile] | 9010 nM | 1300 nM | –
CC(C)(C)N1CCC(n2cc([C@@H](Nc3cc(Cl)c4ncc(C#N)c(NC[Si](C)(C)C)c4c3)c3ccccc3)nn2)CC1 [Example 489, (S)-6-(((1-(1-(tert-butyl)piperidin-4-yl)-1H-1,2,3-triazol-4-yl)(phenyl)methyl)amino)-8-chloro-4-(((trimethylsilyl)methyl)amino)quinoline-3-carbonitrile] | – | 10 nM | 184 nM
N#Cc1cnc2c(Cl)cc(N[C@@H](c3ccc(Cl)cc3)c3c[nH]nn3)cc2c1Nc1cnc(F)c(F)c1 [Example 495, (S)-8-chloro-6-(((4-chlorophenyl)(1H-1,2,3-triazol-4-yl)methyl)amino)-4-((5,6-difluoropyridin-3-yl)amino) quinoline-3-carbonitrile] | 641 nM | 32 nM | –
N#Cc1cnc2c(Cl)cc(N[C@@H](c3cccc(-c4ncco4)c3)c3c[nH]nn3)cc2c1Nc1cnc(F)c(F)c1 [Example 498, (S)-8-chloro-4-((5,6-difluoropyridin-3-yl)amino)-6-(((3-(oxazol-2-yl)phenyl)(1H-1,2,3-triazol-4-yl)methyl)amino) quinoline-3-carbonitrile] | 520 nM | 8 nM | –
N#Cc1cnc2c(Cl)cc(N[C@H](c3cn(C4COC4)nn3)c3c(F)cc(F)cc3F)cc2c1Nc1cnc(F)c(F)c1 [Example 500, (S)-8-chloro-4-((5,6-difluoropyridin-3-yl)amino)-6-(((1-(oxetan-3-yl)-1H-1,2,3-triazol-4-yl)(2,4,6-trifluorophenyl)methyl)amino)quinoline-3-carbonitrile] | 2160 nM | 92 nM | –
N#Cc1cnc2c(Cl)cc(N[C@H](c3cn(C4COC4)nn3)c3ccccc3C(F)(F)F)cc2c1Nc1cnc(F)c(F)c1 [Example 501, (S)-8-chloro-4-((5,6-difluoropyridin-3-yl)amino)-6-(((1-(oxetan-3-yl)-1H-1,2,3-triazol-4-yl)(2-(trifluoromethyl)phenyl)methyl)amino)quinoline-3-carbonitrile] | 2140 nM | 94 nM | –
N#Cc1cnc2c(Cl)cc(N[C@H](c3c[nH]nn3)c3ccccc3C(F)(F)F)cc2c1Nc1cnc(F)c(F)c1 [Example 502, (S)-6-(((1H-1,2,3-triazol-4-yl)(2-(trifluoromethyl)phenyl)methyl)amino)-8-chloro-4-((5,6-difluoropyridin-3-yl)amino)quinoline-3-carbonitrile] | 1950 nM | 160 nM | –
N#Cc1cnc2c(Cl)cc(N[C@H](c3c[nH]nn3)c3c(F)cc(F)cc3F)cc2c1Nc1cnc(F)c(F)c1 [Example 503, (S)-6-(((1H-1,2,3-triazol-4-yl)(2,4,6-trifluorophenyl)methyl)amino)-8-chloro-4-((5,6-difluoropyridin-3-yl)amino)quinoline-3-carbonitrile] | 1690 nM | 98 nM | –
